Broadly, the IC50 is the midpoint of a concentration-inhibition curve. Read a low IC50 as greater potency.

A value given as a limit tells only on which side of the number the result lay.

Holding throughout (assay type): functional, cell-based
Assay [1] has as its system A549. The experiment in a line: Compound was evaluated for the cytotoxicity against A-549 tumor cell line after 3 days of incubation. Particulars: Homo sapiens, A549, 72 h.
The test system of assay [2] is HT-29. The experiment in a line: Compound was evaluated for the cytotoxicity against HT-29 tumor cell line after 3 days of incubation. The note with it: Homo sapiens, HT-29, 72 h.
The test system of assay [3] is SK-MEL-28. In words: Compound was evaluated for the cytotoxicity against MEL-28 tumor cell line after 3 days of incubation. Particulars: Homo sapiens, SK-MEL-28, 72 h.
Assay [4] deals with P388. The experiment in a line: Compound was evaluated for the cytotoxicity against P-388 tumor cell line after 3 days of incubation. Particulars: Mus musculus, P388, 72 h.

As to `COc1cc([C@H]2C[C@](O)(C(C)=O)C[C@H]3C(=O)c4c(c(O)c5ccccc5c4O)C(=O)[C@@H]23)cc(OC)c1OC`, the IC50 in assay [1], in assay [2], in assay [3] and in assay [4] was 5 µM throughout.

As to `COc1cc([C@H]2C[C@](O)(C(C)=O)Cc3c(O)c4c(c(O)c32)C(=O)c2ccccc2C4=O)cc(OC)c1OC`, the IC50 in assay [1], in assay [2], in assay [3] and in assay [4] was over 10 µM each time.

As to `COc1cc([C@H]2CC(=O)C[C@H]3C(=O)c4c(c(O)c5ccccc5c4O)C(=O)[C@@H]23)cc(OC)c1OC`, the IC50 in assay [1], in assay [2], in assay [3] and in assay [4] was 5 µM throughout.

For the compound `COc1cccc2c1C(=O)c1c(O)c3c(c(O)c1C2=O)C[C@@](O)(C(=O)CO)C[C@@H]3O[C@H]1C[C@H](N)[C@H](O)[C@H](C)O1` [DOXORUBICIN], the concentration for half-maximal inhibition (IC50) in assay [1], in assay [2], in assay [3] and in assay [4] was 0.02 µM in each case.

`C#C[C@@]1(O)C[C@H](c2cc(OC)c(OC)c(OC)c2)[C@@H]2C(=O)c3c(c(O)c4ccccc4c3O)C(=O)[C@@H]2C1`: the concentration for half-maximal inhibition (IC50) in assay [1], in assay [2], in assay [3] and in assay [4] was 0.5 µM throughout.

`C#C[C@]1(O)Cc2c(O)c3c(c(O)c2[C@@H](c2cc(OC)c(OC)c(OC)c2)C1)C(=O)c1ccccc1C3=O`: the IC50 in assay [1], in assay [2], in assay [3] and in assay [4] was over 10 µM in each case.
